The subject of experiment [1] is HCT116 MTAP-deleted cells. The experiment in a line: Cell viability assay (CellTiter-Glo, 7 days), HCT116 MTAP-deleted. Conditions: Homo sapiens, HCT-116, 168 h. (In general: Cellular ATP, detected with luciferase, serves as a proxy for viable cell number.)
Experiment [2] has as its system SDMA signal (PRMT5 inhibition) in HCT116 MTAP-deleted cells. The experiment in a line: Symmetric di-methyl arginine image-based high content screen assay (SDMA assay), HCT116 MTAP-deleted. The experiment is classed as cell-based. The settings on record: SDMA assay; for EC50: Homo sapiens, HCT-116, 72 h, 3 days of treatment, cell line not given, taken as HCT116 MTAP-deleted, read-out: EC50 (SDMA assay). Put shortly: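 HCT116 MTAP-deleted cells treated with compound until Day 3, then formalin-fixed, permeabilized and immunostained for SDMA, with DAPI nuclear counterstain. Imaged by high-content microscopy; SDMA read-out is mean Alexa 488 intensity per DAPI-defined cell, reflecting PRMT5 inhibition.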

Setting [3] is: taken as HCT116 WT versus MTAP-deleted.
The mark [4] stands for this setting: taken as HCT116 WT vs MTAP-deleted.

Here are results for 17 compounds from patent US20240254118A1, “PRMT5 INHIBITORS AND USES THEREOF” (Gilead Sciences, Inc., priority 2022, published 2024).

By CC50 is commonly meant the concentration at which the toxic effect on the cells reaches its halfway point. A low value points to greater toxicity to the cells. In general, EC50 refers to the concentration giving half of the maximal effect.

`Cn1ncc2c(N)nc3cc(Cl)c(C(=O)N(Cc4ccc(C(F)(F)F)cn4)N4CCOCC4=O)cc3c21` [Example 63, 4-amino-7-chloro-1-methyl-N-(3-oxomorpholin-4-yl)-N-[[5-(trifluoromethyl)-2-pyridyl]methyl]pyrazolo[4,3-c]quinoline-8-carboxamide]: the CC50 in experiment [1] was below 100 nM. Also, in experiment [2], the EC50 fell in the range of 1 to 5 nM. In addition, in experiment [2] (setting [3]), the “EC50 selectivity (SDMA assay)” value was 70.
The compound `Cn1ncc2c(N)nc3ccc(C(=O)N(Cc4ccc(Cl)cc4F)NC(=O)C4CC4)cc3c21` [Example 439, 4-amino-N-(4-chloro-2-fluorobenzyl)-N′-(cyclopropanecarbonyl)-1-methyl-1H-pyrazolo[4,3-c]quinoline-8-carbohydrazide] displayed a CC50 in experiment [1] below 100 nM. Besides, the EC50 in experiment [2] was below 1 nM. For the same compound, in experiment [2] (setting [4]), the “EC50 selectivity (SDMA assay)” value came to 51.
On to `CC(=O)N(C)N(Cc1ccc(C#CC2CCCO2)cc1F)C(=O)c1ccc2nc(N)c3cnn(C)c3c2c1` (stereo not drawn) [Example 387, N′-acetyl-4-amino-N-[[2-fluoro-4-(2-tetrahydrofuran-2-ylethynyl)phenyl]methyl]-N′,1-dimethyl-pyrazolo[4,3-c]quinoline-8-carbohydrazide], for which, in experiment [1], the CC50 is below 100 nM. In experiment [2], the EC50 was 1 to 5 nM. The “EC50 selectivity (SDMA assay)” value in experiment [2] (setting [3]) is 44.
In experiment [1], `CN(C(=O)C1CCC1)N(Cc1ccc(C(F)(F)F)nn1)C(=O)c1ccc2nc(N)c3cnn(C)c3c2c1` [Example 104, 4-amino-N′-(cyclobutanecarbonyl)-N′,1-dimethyl-N-((6-(trifluoromethyl)pyridazin-3-yl)methyl)-1H-pyrazolo[4,3-c]quinoline-8-carbohydrazide] registered a half-maximal cytotoxic concentration (CC50) below 100 nM. In addition, in experiment [2], the EC50 was in the range of 1 to 5 nM. The “EC50 selectivity (SDMA assay)” value in experiment [2] (setting [3]) came out at 173.
Taken in the same sequence, the figures for `Cn1ncc2c(N)nc3ccc(C(=O)N(Cc4nc5ccccc5s4)N4CCCC4=O)cc3c21` [Example 65, 4-amino-N-(1,3-benzothiazol-2-ylmethyl)-1-methyl-N-(2-oxopyrrolidin-1-yl)pyrazolo[4,3-c]quinoline-8-carboxamide] were below 100 nM, below 1 nM and 149.
`Cn1ncc2c(N)nc3ccc(C(=O)N(Cc4ccc(C(F)(F)F)cn4)N4CCCCC4)cc3c21` [Example 28, 4-amino-1-methyl-N-(1-piperidyl)-N-[[5-(trifluoromethyl)-2-pyridyl]methyl]pyrazolo[4,3-c]quinoline-8-carboxamide] showed a CC50 in experiment [1] below 100 nM. Further, the EC50 in experiment [2] is below 1 nM. Besides, in experiment [2] (setting [3]), the “EC50 selectivity (SDMA assay)” value turned out to be 134.
The matching figures for `[2H]C1([2H])C([2H])([2H])C1([2H])C(=O)N(C)N(Cc1ccc(C(F)(F)F)cn1)C(=O)c1ccc2nc(N)c3cnn(C)c3c2c1` [Example 305, 4-amino-N′-(cyclopropane-1-carbonyl-d5)-N′,1-dimethyl-N-((5-(trifluoromethyl)pyridin-2-yl)methyl)-1H-pyrazolo[4,3-c]quinoline-8-carbohydrazide]: below 100 nM, below 1 nM and 75.
In the case of `Cn1ncc2c(N)nc3ccc(C(=O)N(Cc4ccc(C(F)(F)F)cn4)N4CCCC(F)(F)C4)cc3c21` [Example 21, 4-amino-N-(3,3-difluoro-1-piperidyl)-1-methyl-N-[[5-(trifluoromethyl)-2-pyridyl]methyl]pyrazolo[4,3-c]quinoline-8-carboxamide], the CC50 in experiment [1] is below 100 nM. The EC50 in experiment [2] is below 1 nM. In experiment [2] (setting [3]), the “EC50 selectivity (SDMA assay)” value is listed as 90.
In experiment [1], `COCCN(C)N(Cc1ccc(C(F)(F)F)cc1F)C(=O)c1ccc2nc(N)c3cnn(C)c3c2c1` [Example 396, 4-amino-N-[[2-fluoro-4-(trifluoromethyl)phenyl]methyl]-N′-(2-methoxyethyl)-N′,1-dimethyl-pyrazolo[4,3-c]quinoline-8-carbohydrazide] returned a CC50 below 100 nM. The EC50 in experiment [2] lay in the range of 1 to 5 nM. In addition, in experiment [2] (setting [4]), the “EC50 selectivity (SDMA assay)” value worked out at 135.
`CC(=O)N(C)N(Cc1ncc(C(F)(F)F)cc1Cl)C(=O)c1ccc2nc(N)c3cnn(C)c3c2c1` [Example 261, N′-acetyl-4-amino-N-((3-chloro-5-(trifluoromethyl)pyridin-2-yl)methyl)-N′,1-dimethyl-1H-pyrazolo[4,3-c]quinoline-8-carbohydrazide] had a CC50 in experiment [1] below 100 nM. Further, the EC50 in experiment [2] fell in the range of 1 to 5 nM. Also, the “EC50 selectivity (SDMA assay)” value in experiment [2] (setting [3]) stood at 257.
`CC(=O)N(C)N(Cc1ccc(C(F)(F)F)cc1F)C(=O)c1ccc2nc(N)c3c(cnn3C)c2c1` [Example 153, N′-acetyl-4-amino-N-(2-fluoro-4-(trifluoromethyl)benzyl)-N′,3-dimethyl-3H-pyrazolo[3,4-c]quinoline-8-carbohydrazide]: in experiment [1], the CC50 was below 100 nM. In addition, the EC50 in experiment [2] lay within 1 to 5 nM. Further, the “EC50 selectivity (SDMA assay)” value in experiment [2] (setting [3]) stood at 54.
The matching figures for `Cn1ncc2c(N)nc3ccc(C(=O)N(Cc4ccc(C(F)(F)F)cn4)N4CCN(CC(F)(F)F)C4=O)cc3c21` [Example 4, 4-amino-1-methyl-N-(2-oxo-3-(2,2,2-trifluoroethyl)imidazolidin-1-yl)-N-((5-(trifluoromethyl)pyridin-2-yl)methyl)-1H-pyrazolo [4,3-c]quinoline-8-carboxamide]: below 100 nM, 1 to 5 nM and 327.
Taken in the same sequence, the figures for `[2H]C([2H])(c1ccc(C(F)(F)F)cc1F)N(C(=O)c1ccc2nc(N)c3cnn(C)c3c2c1)N(C)C(=O)C1CC1` [Example 263, 4-amino-N′-(cyclopropanecarbonyl)-N-((2-fluoro-4-(trifluoromethyl)phenyl)methyl-d2)-N′,1-dimethyl-1H-pyrazolo[4,3-c]quinoline-8-carbohydrazide] were below 100 nM, below 1 nM and 46.
Regarding `CC(=O)N(C)N(Cc1ccc2oc(C)nc2c1)C(=O)c1ccc2nc(N)c3cnn(C)c3c2c1` [Example 334, N′-acetyl-4-amino-N′,1-dimethyl-N-((2-methylbenzo[d]oxazol-5-yl)methyl)-1H-pyrazolo[4,3-c]quinoline-8-carbohydrazide], in experiment [1], the CC50 lay in the range of 100 to 1000 nM. Further, the EC50 in experiment [2] is 1 to 5 nM. Moreover, the “EC50 selectivity (SDMA assay)” value in experiment [2] (setting [3]) was 178.
`COCC(=O)N(C)N(Cc1ccc(C(F)(F)F)cn1)C(=O)c1cc2c(cc1F)nc(N)c1cnn(C)c12` [Example 386, 4-amino-7-fluoro-N′-(2-methoxyacetyl)-N′,1-dimethyl-N-[[5-(trifluoromethyl)-2-pyridyl]methyl]pyrazolo[4,3-c]quinoline-8-carbohydrazide]: in experiment [1], the CC50 is below 100 nM. The EC50 in experiment [2] was 1 to 5 nM. Further, in experiment [2] (setting [3]), the “EC50 selectivity (SDMA assay)” value is reported as 20.
Taken in the same sequence, the figures for `Cn1ncc2c(N)nc3ccc(C(=O)N(Cc4ccccc4F)N4CCCC4=O)cc3c21` [Example 56, 4-amino-N-(2-fluorobenzyl)-1-methyl-N-(2-oxopyrrolidin-1-yl)-1H-pyrazolo[4,3-c]quinoline-8-carboxamide] were below 100 nM, below 1 nM and 195.
The matching figures for `CC(=O)N(C)N(Cc1nc2cc(F)ccc2s1)C(=O)c1ccc2nc(N)c3cnn(C)c3c2c1` [Example 92, N′-Acetyl-4-amino-N-[(5-fluoro-1,3-benzothiazol-2-yl)methyl]-N′,1-dimethyl-pyrazolo[4,3-c]quinoline-8-carbohydrazide]: below 100 nM, below 1 nM and 257.
